Laboratory results published in ChEMBL document CHEMBL1201862, “PubChem BioAssay data set” (2004).
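A five-concentration, 48-hour dose response in 96-well plates underlies each endpoint, interpolated linearly between surrounding concentrations. The concentration for 50% growth inhibition is given as GI50.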 The source made the active and inactive calls. Cut-off read from the data, not from the text of the source: active = GI50 up to about 1.1 µM and inactive = higher.

Tests used:
Assay in all cases: NCI tumour cell line growth inhibition, 48 h
786-0 = tested on: 786-0
A549 = tested on: A549
CCRF-CEM = tested on: CCRF-CEM
HCT-15 = tested on: HCT-15
IGROV-1 = tested on: IGROV-1
K562 = tested on: K562
MDA-N = tested on: MDA-N
MOLT-4 = tested on: MOLT-4
Malme-3M = tested on: Malme-3M
NCI-H522 = tested on: NCI-H522
OVCAR-3 = tested on: OVCAR-3
OVCAR-5 = tested on: OVCAR-5
OVCAR-8 = tested on: OVCAR-8
RPMI-8226 = tested on: RPMI-8226
SF-295 = tested on: SF-295
SK-MEL-2 = tested on: SK-MEL-2
SK-MEL-5 = tested on: SK-MEL-5
SR = tested on: SR
UO-31 = tested on: UO-31
BT-549 = tested on: BT-549

Row | Structure (SMILES) | GI50 (786-0) | GI50 (A549) | GI50 (CCRF-CEM) | GI50 (HCT-15) [µM] | GI50 (IGROV-1) | GI50 (K562) | GI50 (MDA-N) | GI50 (MOLT-4) | GI50 (Malme-3M) | GI50 (NCI-H522) | GI50 (OVCAR-3) | GI50 (OVCAR-5) | GI50 (OVCAR-8) | GI50 (RPMI-8226) | GI50 (SF-295) | GI50 (SK-MEL-2) | GI50 (SK-MEL-5) | GI50 (SR) | GI50 (UO-31) | GI50 (BT-549)
1 | C=CC1(c2ccc(Cl)c(Cl)c2)OCCO1 | > 100 µM (inactive) | > 100 µM (inactive) | > 100 µM (inactive) | > 100 | > 100 µM (inactive) | 27.7 µM (inactive) | > 100 µM (inactive) | > 100 µM (inactive) | > 100 µM (inactive) | > 100 µM (inactive) | > 100 µM (inactive) | > 100 µM (inactive) | > 100 µM (inactive) | > 100 µM (inactive) | > 100 µM (inactive) | 79.4 µM (inactive) | > 100 µM (inactive) | 55.8 µM (inactive) | > 100 µM (inactive) | 
2 | Cc1nnc2sc(Cc3cnc(N)s3)nn12 | > 100 µM (inactive) | > 100 µM (inactive) | > 100 µM (inactive) | > 100 | 91.4 µM (inactive) | > 100 µM (inactive) |  | > 100 µM (inactive) | > 100 µM (inactive) | > 100 µM (inactive) |  | > 100 µM (inactive) | > 100 µM (inactive) | > 100 µM (inactive) |  | > 100 µM (inactive) | > 100 µM (inactive) | > 100 µM (inactive) | > 100 µM (inactive) | 
3 | O=C1/C(=C\c2ccc(Cl)cc2Cl)Sc2scc(-c3ccc(O)c(O)c3)[n+]21 | 15.7 µM (inactive) | 16.9 µM (inactive) | 17.7 µM (inactive) | 14.8 | 21.2 µM (inactive) |  | 17.5 µM (inactive) | 9.64 µM (inactive) |  | 16.5 µM (inactive) | 6.47 µM (inactive) | 16.4 µM (inactive) | 17.2 µM (inactive) |  | 17.4 µM (inactive) | 11.5 µM (inactive) | 7.98 µM (inactive) |  | 13 µM (inactive) | 17.9 µM (inactive)
4 | C=C1C(C(=O)O)C1C(=O)O (stereo unspecified) | > 100 µM (inactive) | > 100 µM (inactive) | > 100 µM (inactive) | > 100 | > 100 µM (inactive) | > 100 µM (inactive) |  | > 100 µM (inactive) | > 100 µM (inactive) | > 100 µM (inactive) |  | > 100 µM (inactive) | > 100 µM (inactive) | > 100 µM (inactive) | > 100 µM (inactive) | > 100 µM (inactive) | > 100 µM (inactive) | > 100 µM (inactive) | > 100 µM (inactive) | 
5 | COc1ccc(/N=N/C(=O)NC(CC(C)C)C(=O)NC(CC(C)C)C(=O)O)cc1 (stereo unspecified) | > 100 µM (inactive) | 38.9 µM (inactive) | 42.6 µM (inactive) | 19.5 | > 100 µM (inactive) | 8.45 µM (inactive) | 35.3 µM (inactive) | 41.6 µM (inactive) | 23.7 µM (inactive) | 51.9 µM (inactive) | > 100 µM (inactive) | 4.02 µM (inactive) | > 100 µM (inactive) | > 100 µM (inactive) | 34.8 µM (inactive) |  | 18.1 µM (inactive) |  | 24.8 µM (inactive) | > 100 µM (inactive)
6 | N#Cc1c2c([nH]c(=O)c1C#N)CCCC2 | > 100 µM (inactive) | > 100 µM (inactive) | > 100 µM (inactive) | > 100 | > 100 µM (inactive) | > 100 µM (inactive) | > 100 µM (inactive) | > 100 µM (inactive) | > 100 µM (inactive) |  | > 100 µM (inactive) | > 100 µM (inactive) | > 100 µM (inactive) |  | > 100 µM (inactive) | > 100 µM (inactive) | > 100 µM (inactive) |  | > 100 µM (inactive) | > 100 µM (inactive)
7 | COC(=O)C12C3C4C5(C(=O)OC)C(C1C35C(=O)N(C(C)C)C(C)C)C42C(=O)N(C(C)C)C(C)C (stereo unspecified) | > 50 µM (inactive) | > 45.9 µM (inactive) | > 50 µM (inactive) | > 23.3 | > 50 µM (inactive) | > 47.4 µM (inactive) |  | > 50 µM (inactive) | > 50 µM (inactive) | > 47.2 µM (inactive) | > 50 µM (inactive) | > 50 µM (inactive) | > 50 µM (inactive) | > 36.3 µM (inactive) | > 50 µM (inactive) | > 50 µM (inactive) | > 50 µM (inactive) | > 50 µM (inactive) | > 50 µM (inactive) | 
8 | COc1ccc(/C=C2\CCC(C)c3c2nc(N)c(C#N)c3-c2ccc(OC)c(OC)c2)cc1OC (stereo unspecified) | 8.89 µM (inactive) |  | 3.89 µM (inactive) | 5.71 | 15.1 µM (inactive) | 12 µM (inactive) | 33.4 µM (inactive) | 3.1 µM (inactive) | 16.5 µM (inactive) |  | 9.29 µM (inactive) | 36.9 µM (inactive) | 9.82 µM (inactive) | 3.65 µM (inactive) | 6 µM (inactive) | 2.42 µM (inactive) | 4.84 µM (inactive) |  | 3.16 µM (inactive) | 8 µM (inactive)
9 | O=C1CC23CCCCCCCCCCC2(C1)CC(=O)C3 (stereo unspecified) | 32.6 µM (inactive) | 30 µM (inactive) | 18.9 µM (inactive) | 27.3 | 25.7 µM (inactive) | 27.5 µM (inactive) |  | 18.7 µM (inactive) | 24.6 µM (inactive) | 18.6 µM (inactive) | 17.7 µM (inactive) | 23.2 µM (inactive) | 31.2 µM (inactive) | 19.4 µM (inactive) | 35.3 µM (inactive) | 19.5 µM (inactive) | 17.4 µM (inactive) | 19.9 µM (inactive) | 20.8 µM (inactive) | 
10 | O=C(CN(c1ccccc1)c1ccccc1)n1nnc2ccccc21 | 39.2 µM (inactive) | 28.6 µM (inactive) | 35 µM (inactive) | 39.7 | 52.4 µM (inactive) | 37.8 µM (inactive) |  | 28.2 µM (inactive) | 46.3 µM (inactive) | 21.4 µM (inactive) | 44.6 µM (inactive) | > 100 µM (inactive) | 39.3 µM (inactive) | 34.8 µM (inactive) | 74.8 µM (inactive) | 30.6 µM (inactive) | 20.7 µM (inactive) | 24.8 µM (inactive) | 14.3 µM (inactive) | 
11 | N#Cc1sc2c(c1OC(=O)c1ccc(C(F)(F)F)cc1)c(=O)n(-c1ccccc1)c(=S)n2-c1ccccc1 | 32.1 µM (inactive) | 23.3 µM (inactive) | 10.2 µM (inactive) | 21.8 | 21.2 µM (inactive) | 28.2 µM (inactive) | 29.5 µM (inactive) | 19.5 µM (inactive) | 33 µM (inactive) | 0.107 µM (active) | 19.5 µM (inactive) | 49.2 µM (inactive) | 23.2 µM (inactive) | 17.4 µM (inactive) | 25.6 µM (inactive) |  | 24.9 µM (inactive) | 0.0481 µM (active) |  | 
12 | CC(C)(C)c1c(C(C)(C)C)c(=O)c1=O | > 100 µM (inactive) | > 100 µM (inactive) | > 100 µM (inactive) | > 100 |  | > 100 µM (inactive) | > 100 µM (inactive) | > 100 µM (inactive) | > 100 µM (inactive) |  | > 100 µM (inactive) | > 100 µM (inactive) | > 100 µM (inactive) | > 100 µM (inactive) | > 100 µM (inactive) | > 100 µM (inactive) | > 100 µM (inactive) |  | > 100 µM (inactive) | > 100 µM (inactive)
13 | CC(Br)CN1CCOCC1 (stereo unspecified) | > 100 µM (inactive) | > 100 µM (inactive) |  | > 100 | > 100 µM (inactive) | 50 µM (inactive) |  |  | > 100 µM (inactive) | > 100 µM (inactive) | > 100 µM (inactive) | > 100 µM (inactive) | > 100 µM (inactive) | > 100 µM (inactive) |  | > 100 µM (inactive) | > 100 µM (inactive) | 13.9 µM (inactive) | > 100 µM (inactive) | > 100 µM (inactive)
14 | COc1cc(C(C#N)NNc2nc(C)cc(O)n2)cc(OC)c1OC (stereo unspecified) | > 100 µM (inactive) | > 100 µM (inactive) | > 100 µM (inactive) | > 100 | > 100 µM (inactive) | > 100 µM (inactive) |  |  | > 100 µM (inactive) | > 100 µM (inactive) | > 100 µM (inactive) | > 100 µM (inactive) | > 100 µM (inactive) | > 100 µM (inactive) | > 100 µM (inactive) | > 100 µM (inactive) | > 100 µM (inactive) | 37.5 µM (inactive) | 75 µM (inactive) | 
15 | COc1cc2c(/C=C3/C(=O)Nc4ccc(Cl)cc43)c(Cl)[nH]c2cc1C | 0.731 µM (active) | 0.711 µM (active) | 0.332 µM (active) | 0.449 | 0.368 µM (active) | 0.394 µM (active) |  | 0.294 µM (active) | 0.82 µM (active) | 2.16 µM (inactive) | 0.356 µM (active) | 3.27 µM (inactive) | 1.73 µM (inactive) | 0.91 µM (active) | 0.356 µM (active) | 0.966 µM (active) | 0.592 µM (active) | 0.32 µM (active) | 1.34 µM (inactive) | 0.181 µM (active)
16 | Cc1ccc2c(c1)-c1nc(N)c(C#N)c(-c3ccccc3)c1CCS2(=O)=O | 19 µM (inactive) | 55 µM (inactive) |  | 44.1 | 31.3 µM (inactive) | > 100 µM (inactive) | > 100 µM (inactive) |  | 23.8 µM (inactive) | 39.2 µM (inactive) | 29.5 µM (inactive) | 55 µM (inactive) | 23.1 µM (inactive) | > 100 µM (inactive) |  | 45.8 µM (inactive) | > 100 µM (inactive) |  | > 100 µM (inactive) | 36.4 µM (inactive)
